Data as given in US5759785A, “Method of identifying hormone antagonists and agonists” (Baylor College of Medicine, priority 1995, dated 1998).

Assays:
[1] = tested on: retinoic acid receptor (RAR); experiment: Trypsin digestion of translated RAR; assay type: biochemical; details: preincubated with 2 μM retinoic acid
Protocol: (§1) To 5 μl of hormone-treated (10 minutes at room temperature (PR) or 37° C. (ER)) labeled translation mix, 0.5 μl of protease (diluted in water) was added followed by incubation for 10 minutes. The rate of digestion is dependent on the concentration of enzyme used. ER translation mixes were made 10 mM in MgCl2 before hormone addition. 0.5 μl was removed and mixed with 10 μl of denaturing loading dye, boiled for 5 minutes, and immediately loaded on 1.5 mm thick 0.1% (w/v) sodium dodecyl sulphate-12% (w/v) polyacrylamide gels. Denaturing gel electrophoresis was performed as described in Promega's translation handbook. Following electrophoresis, gels were treated with 30% (v/v) methanol/10% (v/v) acetic acid, then with EN^3 HANCE, and were vacuum dried at 60° C. for 30 minutes, followed by 80° C. for 45 minutes. Autoradiography was performed overnight. Promega's rabbit reticulocyte lysates average a protein concentration of 130 mg/ml; 5 μg of protease per ml of translation mix is therefore roughly equivalent to 60 ng of protease per mg of protein.
(§2) The receptors were translated as a polypeptides of predicted molecular weight (FIG. 7A and 7B, lane 1). Trypsin digestion of RAR and TR which had been preincubated with 2 μM retinoic acid and 10^-T MT3 produced a resistant 31 kd fragment, which was not detectable following digestion of carrier-treated receptor (compare lanes 2-6 with lanes 8-12). […]

A-form human PR [2] = experiment: Electrophoretic mobility shift assay, in vitro translated PR binding to a PRE; assay type: biochemical; details: 100 nM ligand (progesterone also 10 nM)
Protocol: (§3) EMSAs were carried out as previously described (Bagchi et al., Mol. Cell. Biol., 2:1221, 1988), except that 100 ng (PR) or 1 μg (ER) of Poly(dI-dC)(dI-dC) were used as competitor and 10 mM MgCl2 was used when testing estrogen receptor. 4 μl of unlabeled translation mix were used per 10 μl reaction. Proteins were incubated with ligand at room temperature (PR) or 37° C. (ER) for 10 minutes, followed by the addition of DNA and further incubation for 10 minutes. For the experiment in FIG. 2, all incubations were carried out at 30° C. in the presence of 300 U/ml calf intestinal alkaline phosphatase. All mixing was done by gentle vortexing. DNA-protein complexes were resolved on 4% (w/v) gels.
Hormone-dependent activity of the in vitro synthesized PR was measured, i.e., its ability to bind DNA specifically was examined by electrophoretic mobility shift assay (EMSA) (FIG. 1A). Unlabeled receptors were incubated with a ^32 P-end-labeled oligonucleotide equivalent to a PRE from the tyrosine aminotransferase gene upstream region.

A-form human PR [3] = experiment: Limited proteolytic digestion of translated PR; assay type: biochemical; details: 100 nM ligand; for protease-resistant PR fragment: chymotrypsin, trypsin or subtilisin digestion; for proteolytic fragment pattern / conformational change of PR: trypsin (Org compounds) or subtilisin (R5020)
Protocol: as §1
Proteolytic analysis is a powerful method for analyzing conformation changes within proteins. [^35 S]methionine-labeled PR was treated with progesterone, Ru38486 or ethanol, then digested for a short period of time with different amounts of various proteases. Digestion products were analyzed by denaturing gel electrophoresis.

hPR = target: T1, hPR (Homo sapiens, UniProt P06401); experiment: Bandshift analysis of T47D extract hPR with C-262 antibody supershift; assay type: biochemical; details: T47D extracts; 100 nM ligand
T1 sequence (P06401 1-933): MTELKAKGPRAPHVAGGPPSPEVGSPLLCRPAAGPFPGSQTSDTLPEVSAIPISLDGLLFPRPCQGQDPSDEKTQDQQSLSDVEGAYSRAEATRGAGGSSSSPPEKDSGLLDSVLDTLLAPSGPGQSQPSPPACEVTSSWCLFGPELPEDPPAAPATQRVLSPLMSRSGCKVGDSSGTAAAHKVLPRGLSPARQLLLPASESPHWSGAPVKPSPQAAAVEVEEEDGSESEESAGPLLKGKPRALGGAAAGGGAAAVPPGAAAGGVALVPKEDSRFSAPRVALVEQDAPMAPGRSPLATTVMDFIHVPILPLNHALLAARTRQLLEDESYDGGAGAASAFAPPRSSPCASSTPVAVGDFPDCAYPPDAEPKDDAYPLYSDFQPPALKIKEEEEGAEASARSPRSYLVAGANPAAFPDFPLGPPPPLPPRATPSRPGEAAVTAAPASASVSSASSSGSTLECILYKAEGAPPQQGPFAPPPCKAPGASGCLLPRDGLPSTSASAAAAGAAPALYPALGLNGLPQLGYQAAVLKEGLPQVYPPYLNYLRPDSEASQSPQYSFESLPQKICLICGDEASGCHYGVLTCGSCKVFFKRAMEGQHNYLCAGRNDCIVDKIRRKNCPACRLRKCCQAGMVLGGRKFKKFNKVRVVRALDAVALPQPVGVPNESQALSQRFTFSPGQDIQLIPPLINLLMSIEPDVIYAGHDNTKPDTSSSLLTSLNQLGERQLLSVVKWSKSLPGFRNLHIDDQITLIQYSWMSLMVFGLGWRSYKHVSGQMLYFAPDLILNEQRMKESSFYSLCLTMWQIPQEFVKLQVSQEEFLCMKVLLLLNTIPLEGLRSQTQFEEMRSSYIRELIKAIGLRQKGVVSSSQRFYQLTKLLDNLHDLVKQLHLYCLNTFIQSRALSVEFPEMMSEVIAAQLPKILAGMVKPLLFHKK
Protocol: In panel (A), T47D extracts were treated in vitro with 100 nM progesterone (P, lanes 2, 5, 8, 11 and 13), RU486 (R, lanes 3, 6 and 9) or with an equal amount (0.01% (v/v)) of ethanol carrier (-, lanes 1, 4, 7, 10, 12 and 14), followed by the addition of N-terminal-binding (AB52, lanes 7 to 9 and 14) or C-terminal-binding (C-262, lanes 4 to 13) anti-hPR monoclonal antibodies, or a control anti-cPR antibody (PR22, lanes 1 to 3). […] Binding to a PRE was assessed by bandshift analysis. The positions of specific DNA-protein complexes and of free probe are indicated. (B) The effect of ligands on C-262 supershifting was tested as in (A), except that extracts were treated with 100 nM Org31376 (OI, lanes 3, 7 and 11), Org31806 (OII, lanes 4, 8 and 12) or progesterone (P, lanes 2, 6 and 10).
A monoclonal antibody (C-262), which was raised against the C-terminal 14 amino acids of PR was used to determine if there was a difference in the accessibility of the epitope when the receptor was bound to an agonist or an antagonist.
The epitope recognized by C-262 antibody was the C-terminus of the receptor. A peptide corresponding to the C-terminal 14 amino acid tail was preincubated with the antibody prior to addition to the band-shift reaction.

progesterone action = details: cited from earlier work
thyroxine receptor (TR) = experiment: Trypsin digestion of translated TR; assay type: biochemical; details: preincubated with 10^-T MT3
Protocol: as §1, §2

Human ER = target: T2, Human ER (Homo sapiens, UniProt P03372); experiment: Electrophoretic mobility shift assay, translated ER binding to an ERE; assay type: biochemical; details: 100 nM ligand; 10 mM MgCl2, 37° C.
T2 sequence (P03372 1-595): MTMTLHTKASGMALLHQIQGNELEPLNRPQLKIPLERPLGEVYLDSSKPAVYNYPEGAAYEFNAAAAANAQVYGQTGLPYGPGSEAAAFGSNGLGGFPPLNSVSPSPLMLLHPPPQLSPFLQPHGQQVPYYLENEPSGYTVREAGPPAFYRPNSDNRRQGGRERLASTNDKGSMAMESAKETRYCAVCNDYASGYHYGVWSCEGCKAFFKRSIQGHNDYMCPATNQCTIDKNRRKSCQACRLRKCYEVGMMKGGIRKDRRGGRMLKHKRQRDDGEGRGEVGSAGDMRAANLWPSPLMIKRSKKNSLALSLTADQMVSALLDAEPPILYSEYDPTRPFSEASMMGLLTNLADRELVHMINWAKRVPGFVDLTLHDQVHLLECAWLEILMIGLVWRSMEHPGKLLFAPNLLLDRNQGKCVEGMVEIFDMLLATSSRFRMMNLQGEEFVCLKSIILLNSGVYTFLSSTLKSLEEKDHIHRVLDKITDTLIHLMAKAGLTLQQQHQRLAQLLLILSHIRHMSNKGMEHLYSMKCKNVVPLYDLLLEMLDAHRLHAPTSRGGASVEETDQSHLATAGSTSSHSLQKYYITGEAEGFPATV
Protocol: as §3

ER = details: cited from earlier work

With `CC1=C(/C=C/C(C)=C/C=C/C(C)=C/C(=O)O)C(C)(C)CCC1` [retinoic acid] the “trypsin-resistant RAR fragment” value [1] was 31 kd.
With `CC#C[C@]1(O)CC[C@H]2[C@@H]3CCC4=CC(=O)CCC4=C3[C@@H](c3ccc(N(C)C)cc3)C[C@@]21C` [Ru38486] the “binding of translated PR to a PRE (specific DNA-protein complex, EMSA)” value (“binding of translated PR to a PRE” for short) (A-form human PR [2]) was “promoted binding to the PRE that was at least as strong as that induced by an equal concentration (100 nM) of progesterone”, the “protease-resistant PR fragment” value (A-form human PR [3]) was 27 kd and the “recognition (supershift) of ligand-bound hPR-DNA complex by C-262 antibody” value (hPR) was “exposed”.
In the case of `CC(=O)[C@H]1CC[C@H]2[C@@H]3CCC4=CC(=O)CC[C@]4(C)[C@H]3CC[C@]12C` [progesterone], the “binding of translated PR to a PRE” value (A-form human PR [2]) is reported as “Specific DNA-protein complexes were obtained”, the “protease-resistant PR fragment” value (A-form human PR [3]) is reported as 30 kd and the “recognition (supershift) of ligand-bound hPR-DNA complex by C-262 antibody” value (hPR) is reported as “almost totally prevented recognition of the receptor by C-262 antibody”.
In the case of `C[C@H]1CC2=CC(=O)CCC2=C2[C@@H]1[C@@H]1CC[C@@]3(CCCO3)[C@@]1(C)C[C@@H]2c1ccc(N(C)C)cc1` [Org 31806], the “binding of translated PR to a PRE” value (A-form human PR [2]) is reported as “induce binding of translated PR to a PRE in vitro”, the “proteolytic fragment pattern / conformational change of PR” value (A-form human PR [3]) is reported as “indistinguishable from that induced by Ru38486” and the “recognition (supershift) of ligand-bound hPR-DNA complex by C-262 antibody” value (hPR) is reported as “resulted in supershifting of PR-DNA complexes”. The “antagonism of progesterone action in vivo” value (progesterone action) was “strongly antagonize progesterone action in vivo”.
For `CCC(=O)[C@@]1(C)CC[C@H]2[C@@H]3CCC4=CC(=O)CCC4=C3CC[C@@]21C` [R5020], the “proteolytic fragment pattern / conformational change of PR” value (A-form human PR [3]) was “R5020 and progesterone induced the same conformational changes”.
For thyroxine [T3], the “trypsin-resistant TR fragment” value (thyroxine receptor (TR)) was 31 kd.
In the case of `C[C@]12CC[C@@H]3c4ccc(O)cc4CC[C@H]3[C@@H]1CC[C@@H]2O` [estradiol, 17β-estradiol], the “binding of translated PR to a PRE” value (A-form human PR [2]) is reported as “failed to induce a specific complex”.
In the case of `CCCCN(C)C(=O)CCCCCCCCCC[C@@H]1Cc2cc(O)ccc2[C@H]2CC[C@]3(C)[C@@H](O)CC[C@H]3[C@H]12` [ICI 164,384], the “binding of translated ER to an ERE (EMSA)” value (Human ER) is given as “induces high affinity DNA binding” and the agonistic activity (ER) is given as “no detectable agonistic activity”.
